Assay results reported in US20230105212A1, “BIPHENYL DERIVATIVE INHIBITOR, PREPARATION METHOD THEREFOR AND USE THEREOF” (SHANGHAI HANSOH BIOMEDICAL CO., LTD., priority 2020, published 2023).
pIC50: −log10 of the molar value. Each block holds one compound with its values, some of them ahead of it.

Assays:
[1] = Pharmacokinetic test of plasma and tumor of tumor-bearing nude mice; assay type: in vivo; conditions: tumor-bearing nude mice, p.o. 30 mg/kg; for Kp: female, mouse, tumor/plasma, po, read-out: Tumor plasma ratio
Procedure: Test Embodiment 7. Pharmacokinetic Test of Plasma and Tumor of Tumor-Bearing Nude Mice
Taking tumor-bearing nude mice as the test animals, the pharmacokinetic behavior in the plasma and tumor of tumor-bearing nude mice of the following compound embodiments was studied when orally administered at a dose of 30 mg/kg.
Tumor-bearing nude mouse 21/embodiment, female, Shanghai B&K Laboratory Animal Co., Ltd., animal production license number (SCXK (Shanghai) 2013-0006 No. 311620400001794).
0.5% HPMC (1% Tween 80), dissolved by sonication, to prepare a clear solution or a homogeneous suspension.
Tumor-bearing nude mice, female; p.o. after overnight fasting, respectively, at a dose of 30 mg/kg, administered in a volume of 10 mL/kg.
Before and after administration of tumor-bearing nude mice, at 0, 1, 2, 4, 6, 8, 16 and 24 hours, 0.1 mL of blood was collected from the orbit, placed in an EDTA-K2 test tube, and centrifuged at 6000 rpm at 4° C. for 6 min to separate the plasma. After dissection, the tumor tissue was weighed and stored at −80° C.
1) Tumor tissue was homogenized with methanol and water at a ratio of 1:3, and then centrifuged to get the supernatant. 40 μL of tumor homogenate supernatant and 40 μL of plasma sample were added to 160 μL of acetonitrile for precipitation, and after mixing, centrifuged at 3500×g for 5 to 20 minutes.
2) 100 μL of the supernatant solution after treatment was taken for LC/MS/MS to analyze the concentration of the compounds to be tested.
2.7 Liquid Phase Analysis • Liquid phase condition: Shimadzu LC-20AD pump • MS conditions: AB Sciex API 4000 Mass Spectrometer • Chromatographic column: phenomenex Gemiu 5 μm C18 50×4.6 mm • Mobile phase: A solution was aqueous 0.1% formic acid solution, B solution was acetonitrile • Flow rate: 0.8 mL/min • Elution time: 0 to 4.0 minutes, the eluent was as follows:
The main parameters of pharmacokinetics were calculated with WinNonlin 8.2, and the results of the tumor-bearing nude mice pharmacokinetic experiments were shown in the following table: […]

[2] = test system: C57 mice subcutaneous xenografts tumor of MC38-hPDL1 cells; experiment: Tumor inhibition experiment on MC38-hPDL1 xenograft model; assay type: in vivo
Procedure: Test Embodiment 10. Tumor Inhibition Experiment on MC38-hPDL1 Xenograft Model
To evaluate the antitumor activity of the test compounds against C57 mice subcutaneous xenografts tumor of MC38-hPDL1 cells.
MC38-hPDL1 cells were taken out from the cell bank, added to DMEM medium (DMEM+10% FBS) after recovery, and placed in a CO2 incubator (incubator temperature was 37° C., CO2 concentration was 5%) to culture. MC38-hPDL1 cells were collected when the number of cells increased to the required number of inoculation in vivo. Counted with an automatic cell counter, and resuspend the cells with PBS according to the counting results to prepare a cell suspension (density was 1×10^6/mL), and placed in an ice box for use.
6-8-week-old female C57 mice weighing approximately 18-22 grams were used. Mice were housed in SPF animal room, single cage, 4-5 mice per cage. All cages, litter and water were sterilized at high temperature before use, and all animals had free access to food and water. Before the start of the experiment, C57 mice were marked with a disposable ear tag for rats and mice, and the skin of the inoculation site was disinfected with 75% alcohol before inoculation. Each mouse was subcutaneously inoculated with 0.1 mL (containing 1*10^5 cells) of MC38-hPDL1 cells on the right back. […] […] Tumor volume was measured twice a week and mice were weighed twice a week, and tumor TGI (%) was calculated.
Tumor volume (mm^3), the calculation formula was: V=0.5*D*d*d, wherein D and d were the long and short diameters of the tumor, respectively.
When the tumor regressed, TGI(%)=[1−(average tumor volume at the end of administration of a treatment group-average tumor volume at the beginning of administration of this treatment group)/average tumor volume at the beginning of administration of this treatment group]×100%.

MC38-hPDL1 cells = experiment: In vitro cytotoxicity on MC38-hPDL1 cells (CellTiter-Glo); assay type: cell-based, mouse; conditions: for MC38-hPDL1 inhibition rate (%): 72 hours; for pIC50: Mus musculus, MC38-hPD-L1, 72 hours
Procedure: (§1) Test Embodiment 5. In Vitro Cytotoxicity of the Compounds of the Present Disclosure on NFAT-Luc2/PD1 Jurkat Cells and MC38-hPDL1 Cells
(§2) Experimental purpose: To test the in vitro cytotoxicity of compounds on NFAT-luc2/PD1 Jurkat cells and MC38-hPDL1 cells.
(§3) When the cells were cultured to an appropriate degree of confluency, the cells were collected, and the cells was adjusted in an appropriate cell concentration by complete medium, then the cell suspension was plated in a 96-well plate, 90 μL per well, and put in a 37° C., 5% CO2 incubator overnight; compound solutions of different concentrations were prepared by DMSO and medium, and a vehicle control was set; compound solutions were added to a 96-well plate, 10 μL per well, and put in a 37° C., 5% CO2 incubator and cultured for 72 hours. After that, CellTiter-Glo solution was added, the mixture was shaken and mixed evenly, incubated in the dark for 10 minutes, and a BioTek Synergy H1 microplate reader was used for reading.
(§4) Luminescence signal value was used to calculate the inhibition rate, and the concentration and inhibition rate were fitted by nonlinear regression curve using Graphpad Prism software to obtain IC50 values, as shown in the following table: […]

[3] = test system: NFAT-luc2/PD1 Jurkat cells; experiment: In vitro cytotoxicity on NFAT-luc2/PD1 Jurkat cells (CellTiter-Glo); assay type: cell-based; conditions: 72 hours; for pIC50: Homo sapiens, Jurkat
Procedure: as §1, §2, §3, §4

Structure (SMILES): COc1nc(-c2cccc(-c3cccc(NC(=O)c4nc5c(n4C)CCN(C)C5)c3Cl)c2Cl)ccc1CN[C@H]1CCOC[C@@H]1O (relative stereo) [Embodiment 175, N-(2,2′-Dichloro-3′-(5-((((3,4-trans)-3-hydroxytetrahydro-2H-pyran-4-yl)amino)methyl)-6-methoxypyridin-2-yl)-[1,1′-biphenyl]-3-yl)-1,5-dimethyl-4,5,6,7-tetrahydro-1H-imidazo[4,5-c]pyridine-2-carboxamide]
Kp [1]: 2.1 | Drug concentration in plasma [1]: 485 ng/mL | Drug concentration in tumor [1]: 1009 ng/mL

Structure (SMILES): COc1nc(-c2cccc(-c3cccc(NC(=O)c4nc5c(n4C)CCN(C)C5)c3Cl)c2Cl)ccc1CNC1COC1 [Embodiment 114, N-(2,2′-Dichloro-3′-(6-methoxy-5-((oxetan-3-ylamino)methyl)pyridin-2-yl)-[1,1′-biphenyl]-3-yl)-1,5-dimethyl-4,5,6,7-tetrahydro-1H-imidazo[4,5-c]pyridine-2-carboxamide]
TGI (%) Day 15 ([2]; 60 mpk po bid, n=7): 74.92% | Tumor volume (mm^3, Mean ± SD) Day 1 ([2]; 60 mpk po bid, n=7): 69.72 ± 21.92 mm^3 | Tumor volume (mm^3, Mean ± SD) Day 14 ([2]; 60 mpk po bid, n=7): 140.27 ± 77.92 mm^3 | ΔT/ΔC (%) Day 15 ([2]; 60 mpk po bid, n=7): 25.08% | MC38-hPDL1 inhibition rate (%) (MC38-hPDL1 cells): 14.0%^ | pIC50 (MC38-hPDL1 cells): < 5.00 | Jurkat-PD1 inhibition rate (%) [3]: 69.0%^ | pIC50 [3]: 5.12

Structure (SMILES): COc1nc(-c2cccc(-c3cccc(NC(=O)c4nc5c(n4C)CCN(C)C5)c3Cl)c2Cl)ccc1CN1CC2(C1)CN(C(C)=O)C2 [Embodiment 123, N-(3′-(5-((6-Acetyl-2,6-diazaspiro[3.3]heptan-2-yl)methyl)-6-methoxypyridin-2-yl)-2,2′-dichloro-[1,1′-biphenyl]-3-yl)-1,5-dimethyl-4,5,6,7-tetrahydro-1H-imidazo[4,5-c]pyridine-2-carboxamide]
TGI (%) Day 15 ([2]; 10 mpk po bid, n=8): 63.70% | Tumor volume (mm^3, Mean ± SD) Day 1 ([2]; 10 mpk po bid, n=8): 75.93 ± 26.17 mm^3 | Tumor volume (mm^3, Mean ± SD) Day 14 ([2]; 10 mpk po bid, n=8): 644.86 ± 398.92 mm^3 | ΔT/ΔC (%) Day 15 ([2]; 10 mpk po bid, n=8): 36.30% | TGI (%) Day 15 ([2]; 30 mpk po qd, n=8): 67.62% | Tumor volume (mm^3, Mean ± SD) Day 1 ([2]; 30 mpk po qd, n=8): 75.50 ± 25.70 mm^3 | Tumor volume (mm^3, Mean ± SD) Day 14 ([2]; 30 mpk po qd, n=8): 582.87 ± 359.11 mm^3 | ΔT/ΔC (%) Day 15 ([2]; 30 mpk po qd, n=8): 32.38% | Kp [1]: 2.8 | Drug concentration in plasma [1]: 821 ng/mL | Drug concentration in tumor [1]: 2285 ng/mL

Structure (SMILES): COc1nc(-c2cccc(-c3cccc(NC(=O)c4nc5c(n4C)CCN(C)C5)c3Cl)c2Cl)ccc1CNC(CO)CO [Embodiment 174, N-(2,2′-Dichloro-3′-(5-(((1,3-dihydroxypropan-2-yl)amino)methyl)-6-methoxypyridin-2-yl)-[1,1′-biphenyl]-3-yl)-1,5-dimethyl-4,5,6,7-tetrahydro-1H-imidazo[4,5-c]pyridine-2-carboxamide]
Kp [1]: 2.4 | Drug concentration in plasma [1]: 291 ng/mL | Drug concentration in tumor [1]: 697 ng/mL

Structure (SMILES): COc1nc(-c2cccc(-c3cccc(NC(=O)c4nc5c(n4C)CCN(C)C5)c3Cl)c2Cl)cnc1CN1CC(NC(C)=O)C1 [Embodiment 218, N-(3′-(5-((3-Acetylaminoazetidin-1-yl)methyl)-6-methoxypyrazin-2-yl)-2,2′-dichloro-[1,1′-biphenyl]-3-yl)-1,5-dimethyl-4,5,6,7-tetrahydro-1H-imidazo[4,5-c]pyridine-2-carboxamide]
MC38-hPDL1 inhibition rate (%) (MC38-hPDL1 cells): 51% | pIC50 (MC38-hPDL1 cells): 5.03 | Jurkat-PD1 inhibition rate (%) [3]: 85% | pIC50 [3]: 5.36

Structure (SMILES): COc1nc(-c2cccc(-c3cccc(NC(=O)c4nc5c(n4C)CCN(C)C5)c3Cl)c2Cl)ncc1CN1CC(CNC(C)=O)C1 [Embodiment 225, N-(3′-(5-((3-(Acetylaminomethyl)azetidin-1-yl)methyl)-4-methoxypyrimidin-2-yl)-2,2′-dichloro-[1,1′-biphenyl]-3-yl)-1,5-dimethyl-4,5,6,7-tetrahydro-1H-imidazo[4,5-c]pyridine-2-carboxamide]
MC38-hPDL1 inhibition rate (%) (MC38-hPDL1 cells): 1% | pIC50 (MC38-hPDL1 cells): < 5.00 | Jurkat-PD1 inhibition rate (%) [3]: 51% | pIC50 [3]: 5.04

The next lines start with results.

Kp [1]: 4.6 | Drug concentration in plasma [1]: 153 ng/mL | Drug concentration in tumor [1]: 707 ng/mL
Structure (SMILES): COc1nc(-c2cccc(-c3cccc(NC(=O)c4nc5c(n4C)CCN(C)C5)c3Cl)c2Cl)cnc1CN1CC2(C1)CN(C(C)=O)C2 [Embodiment 152, N-(3′-(5-((6-Acetyl-2,6-diazaspiro[3.3]heptan-2-yl)methyl)-6-methoxypyrazin-2-yl)-2,2′-dichloro-[1,1′-biphenyl]-3-yl)-1,5-dimethyl-4,5,6,7-tetrahydro-1H-imidazo[4,5-c]pyridine-2-carboxamide]
MC38-hPDL1 inhibition rate (%) (MC38-hPDL1 cells): 15% | pIC50 (MC38-hPDL1 cells): < 5.00 | Jurkat-PD1 inhibition rate (%) [3]: 97% | pIC50 [3]: 5.35

Kp [1]: 2.2 | Drug concentration in plasma [1]: 291 ng/mL | Drug concentration in tumor [1]: 628 ng/mL
Structure (SMILES): COc1nc(-c2cccc(-c3cccc(NC(=O)c4nc5c(n4C)CCN(C)C5)c3Cl)c2Cl)ccc1CN1CC(O)(CO)C1 [Embodiment 173, N-(2,2′-Dichloro-3′-(5-((3-hydroxy-3-(hydroxymethyl)azetidin-1-yl)methyl)-6-methoxypyridin-2-yl)-[1,1-biphenyl]-3-yl)-1,5-dimethyl-4,5,6,7-tetrahydro-1H-imidazo[4,5-c]pyridine-2-carboxamide]

Kp [1]: 2.3 | Drug concentration in plasma [1]: 309 ng/mL | Drug concentration in tumor [1]: 697 ng/mL
Structure (SMILES): COc1nc(-c2cccc(-c3cccc(NC(=O)c4nc5c(n4C)CCN(C)C5)c3Cl)c2Cl)ccc1CN1CC(C(=O)N(C)C)C1 [Embodiment 183, N-(2,2′-Dichloro-3′-(5-((3-(dimethylcarbamoyl)azetidin-1-yl)methyl)-6-methoxypyridin-2-yl)-[1,1′-biphenyl]-3-yl)-1,5-dimethyl-4,5,6,7-tetrahydro-1H-imidazo[4,5-c]pyridine-2-carboxamide]
MC38-hPDL1 inhibition rate (%) (MC38-hPDL1 cells): 14% | pIC50 (MC38-hPDL1 cells): < 5.00 | Jurkat-PD1 inhibition rate (%) [3]: 71% | pIC50 [3]: 5.24

Kp [1]: 3.5 | Drug concentration in plasma [1]: 432 ng/mL | Drug concentration in tumor [1]: 1504 ng/mL
Structure (SMILES): COc1nc(-c2cccc(-c3cccc(NC(=O)c4nc5c(n4C)CCN(C)C5)c3Cl)c2Cl)ncc1CN1CC(CO)C1 [Embodiment 223, N-(2,2′-Dichloro-3′-(5-((3-(hydroxymethyl)azetidin-1-yl)methyl)-4-methoxypyrimidin-2-yl)-[1,1′-biphenyl]-3-yl)-1,5-dimethyl-4,5,6,7-tetrahydro-1H-imidazo[4,5-c]pyridine-2-carboxamide]
MC38-hPDL1 inhibition rate (%) (MC38-hPDL1 cells): 2% | pIC50 (MC38-hPDL1 cells): < 5.00 | Jurkat-PD1 inhibition rate (%) [3]: 77% | pIC50 [3]: 5.32
